Laboratory results from the C3SDB collision cross section collection.

Conditions: instrument: DT, stepped-field

collision cross section (N2) ([M+Na]+) [Å²]	collision cross section (N2) ([M+K]+) [Å²]	Compound	also measured
–	297.8	CCCCCCCCCCCCCCCCCCCC(=O)O[C@H](COC(=O)CCCCCCCCCCCCCCCC)COP(=O)(O)OCCN [PE(37:0)]	–
292.2	295	CCCCCCCCC/C=C\CCCCCCCC(=O)O[C@H](COC(=O)CCCCCCCCCCCCCCCCC)COP(=O)(O)OCCN [PE(37:1)]	–
288.2	289.8	CCCCC/C=C\C/C=C\CCCCCCCC(=O)O[C@H](COC(=O)CCCCCCCCCCCCCCCCCC)COP(=O)(O)OCCN [PE(37:2)]	–
286.2	286.5	CCCCC/C=C\C/C=C\CCCCCCCCCC(=O)O[C@H](COC(=O)CCCCCCC/C=C\CCCCCCC)COP(=O)(O)OCCN [PE(37:3)]	–
286.4	–	CCCC/C=C\C/C=C\CCCCCCCC(=O)OC[C@H](COP(=O)(O)OCCN)OC(=O)CCCCC/C=C\C/C=C\C/C=C\C/C=C\CCCCC [PE(39:6)]	–
299.7	–	CC/C=C\C/C=C\C/C=C\C/C=C\C/C=C\C/C=C\CCC(=O)OC[C@H](COP(=O)(O)OCCN)OC(=O)CC/C=C\C/C=C\C/C=C\C/C=C\C/C=C\C/C=C\CC [PE(44:12)]	–
279.7	–	CCCCC/C=C\C/C=C\CCCCCCCC(=O)O[C@H](COCCCCCCCCCCCCCCCC)COP(=O)(O)OCCN [PE(o34:2)]	–
295	–	CCCCC/C=C\C/C=C\C/C=C\C/C=C\CCCC(=O)O[C@H](COC(=O)CCCCCCCCCCCCCCCC)COP(=O)(O)OC[C@H](N)C(=O)O [PS(37:4)]	–
290.2	–	CCCCC/C=C\C/C=C\C/C=C\C/C=C\CCCC(=O)OC[C@H](COP(=O)(O)OC[C@H](N)C(=O)O)OC(=O)CCCC/C=C\C/C=C\C/C=C\CCCCC [PS(38:7)]	–
295.6	–	CC/C=C\C/C=C\C/C=C\C/C=C\C/C=C\C/C=C\CCC(=O)OC[C@H](COP(=O)(O)OC[C@H](N)C(=O)O)OC(=O)CCCCCCC/C=C\CCCCCCCC [PS(40:7)]	–
303.3	–	CC/C=C\C/C=C\C/C=C\C/C=C\C/C=C\C/C=C\CCC(=O)O[C@H](COC(=O)CCCCCCCCCCCCCCCCCC)COP(=O)(O)OC[C@H](N)C(=O)O [PS(41:6)]	–
307	–	CCCCC/C=C\C/C=C\C/C=C\C/C=C\CCCCCC(=O)O[C@H](COC(=O)CCCCCCCCC/C=C\CCCCCCCC)COP(=O)(O)OC[C@H](N)C(=O)O [PS(42:5)]	–
302	–	CC/C=C\C/C=C\C/C=C\C/C=C\C/C=C\C/C=C\CCC(=O)O[C@H](COC(=O)CCCCCC/C=C\C/C=C\C/C=C\CCCCC)COP(=O)(O)OC[C@H](N)C(=O)O [PS(42:9)]	–
309.2	306.3	CCCCCCCC=CCC=CCC=CCC=CCC=CCC(=O)OC[C@H](COP(=O)(O)OC[C@H](N)C(=O)O)OC(=O)CC=CCC=CCC=CCC=CCC=CCCCCCCC [PS(46:10)]	–
309.5	–	CCCCC=CCC=CCC=CCC=CCC=CCC=CCC(=O)OC[C@H](COP(=O)(O)OC[C@H](N)C(=O)O)OC(=O)CC=CCC=CCC=CCC=CCC=CCC=CCCCC [PS(46:12)]	–
–	313.6	CCCCCC=CCC=CCC=CCC=CCC=CCC=CCC(=O)OC[C@H](COP(=O)(O)OC[C@H](N)C(=O)O)OC(=O)CC=CCC=CCC=CCC=CCC=CCC=CCCCCC [PS(48:12)]	–
312	311	CCC=CCC=CCC=CCC=CCC=CCC=CCC=CCC(=O)OC[C@H](COP(=O)(O)OC[C@H](N)C(=O)O)OC(=O)CC=CCC=CCC=CCC=CCC=CCC=CCC=CCC [PS(48:14)]	–
313.5	–	CCCCCCCCCCCCC=CC[C@@H](O)[C@H](COP(=O)([O-])OCC[N+](C)(C)C)NC(=O)CC=CCCCCCCCCCCCCCCCCCCCCCC [SM(44:2)]	–

Second part, the molecule before the results:

Compound	collision cross section (N2) ([M+Na]+) [Å²]	collision cross section (N2) ([M+K]+) [Å²]	also measured
NCCCC[C@H](NC(=O)CNC(=O)[C@H](Cc1c[nH]c2ccccc12)NC(=O)[C@@H](N)Cc1ccccc1)C(=O)O [FWGK]	–	–	collision cross section (N2) ([M+H]+): 231 Å²
CCCCCCCCCCCCC=CC[C@@H](O)[C@H](CO[C@@H]1O[C@H](CO)[C@@H](O)C(O)C1O)NC(=O)CC=CCC=CCCCCCCCCCCCCCCC (some centres undefined) [GlcCer(40:3)]	295.8	–	–
CCCCC=CCC=CCC=CCC=CCC=CCC=CCC=CCC=CCC(=O)N[C@@H](CO[C@@H]1O[C@H](CO)[C@@H](O)C(O)C1O)[C@H](O)CC=CCCCCCCCCCCCC (some centres undefined) [GlcCer(47:9)]	–	316.4	–
CCC(C)[C@H](N)C(=O)NCC(=O)N[C@@H](CO)C(=O)N[C@@H](CCC(=O)O)C(=O)N[C@H](C(=O)N[C@@H](Cc1ccc(O)cc1)C(=O)N[C@@H](Cc1c[nH]cn1)C(=O)N[C@@H](CC(N)=O)C(=O)N[C@@H](CC(C)C)C(=O)N[C@@H](CCCCN)C(=O)O)C(C)C (some centres undefined) [IGSEVYHNLK]	–	–	collision cross section (N2) ([M+H]+): 348.4 Å²
CCC(C)[C@H](N)C(=O)N[C@@H](Cc1c[nH]cn1)C(=O)N[C@@H](CCC(=O)O)C(=O)N[C@@H](Cc1ccc(O)cc1)C(=O)N[C@@H](CCCCN)C(=O)O (some centres undefined) [IHEYK]	–	–	collision cross section (N2) ([M+H]+): 258.5 Å²
CC(C)C[C@H](N)C(=O)N[C@@H](Cc1c[nH]c2ccccc12)C(=O)N[C@@H](CO)C(=O)N[C@@H](C)C(=O)N[C@@H](CCCCN)C(=O)O [LWSAK]	–	–	collision cross section (N2) ([M+H]+): 238.6 Å²
CC(=O)N[C@H]1[C@H](O[C@H]2[C@@H](O)[C@@H](CO)O[C@@H](O[C@@H]([C@H](O)[C@@H](O)C=O)[C@H](O)CO)[C@@H]2O)O[C@H](CO)[C@@H](O[C@@H]2O[C@@H](C)[C@@H](O)[C@@H](O)[C@@H]2O)[C@@H]1O[C@@H]1O[C@H](CO)[C@H](O)[C@H](O)[C@H]1O [Lacto-N-Fucopentaose II]	271.1	267.2	collision cross section (N2) ([M+Rb]+): 278.4 Å²
CC(=O)N[C@H]1[C@H](O[C@H]2[C@@H](O)[C@@H](CO)O[C@@H](O[C@H]3[C@H](O)[C@@H](O)C(O)O[C@@H]3CO)[C@@H]2O)O[C@H](CO)[C@@H](O)[C@@H]1O[C@@H]1O[C@H](CO)[C@H](O)[C@H](O)[C@H]1O[C@@H]1O[C@@H](C)[C@@H](O)[C@@H](O)[C@@H]1O (some centres undefined) [Lacto-N-Fucopentaose I]	276.1	274.7	collision cross section (N2) ([M+Cs]+): 275.6 Å²; collision cross section (N2) ([M+Li]+): 269.6 Å²; collision cross section (N2) ([M+Rb]+): 275.2 Å²
OC[C@H]1O[C@@H](O[C@H]2[C@H](O)[C@@H](O)[C@@H](O)O[C@@H]2CO)[C@H](O)[C@@H](O)[C@H]1O [Lactose]	178.1	–	collision cross section (N2) ([M+Li]+): 186.3 Å²
CCC(C)[C@H](NC(=O)[C@@H](NC(=O)[C@@H](N)CCSC)C(C)C)C(=O)N[C@@H](CCCNC(=N)N)C(=O)O (some centres undefined) [MVIR]	–	–	collision cross section (N2) ([M+H]+): 228.7 Å²
N=C(N)NCCC[C@H](NC(=O)[C@H](CC(N)=O)NC(=O)[C@H](Cc1ccccc1)NC(=O)[C@@H](N)CC(N)=O)C(=O)O [NFNR]	–	–	collision cross section (N2) ([M+H]+): 225 Å²
CCCCC/C=C\C/C=C\C/C=C\CCCCCCC(=O)O[C@H](COC(=O)CCCCCCCCCCCC)COP(=O)([O-])OCC[N+](C)(C)C [PC(33:3)]	–	290.1	–
CC/C=C\C/C=C\C/C=C\C/C=C\C/C=C\C/C=C\CCC(=O)O[C@H](COC(=O)CCCCCCCCCCCC)COP(=O)([O-])OCC[N+](C)(C)C [PC(35:6)]	–	291.8	–
CC/C=C\C/C=C\C/C=C\C/C=C\C/C=C\C/C=C\CCC(=O)O[C@H](COC(=O)CCCCCCC/C=C\CCCC)COP(=O)([O-])OCC[N+](C)(C)C [PC(36:7)]	292.5	–	–
CC/C=C\C/C=C\C/C=C\C/C=C\C/C=C\C/C=C\CCC(=O)O[C@H](COC(=O)CCCCCCCCCCCCCC)COP(=O)([O-])OCC[N+](C)(C)C [PC(37:6)]	–	298.2	–
CC/C=C\C/C=C\C/C=C\C/C=C\C/C=C\CCCC(=O)O[C@H](COC(=O)CCCCCCC/C=C\CCCCCCCCC)COP(=O)([O-])OCC[N+](C)(C)C [PC(39:6)]	–	303.4	–
CC/C=C\C/C=C\C/C=C\C/C=C\C/C=C\C/C=C\CCC(=O)OC[C@H](COP(=O)([O-])OCC[N+](C)(C)C)OC(=O)CCCCCCC/C=C\CCCCCCC [PC(39:7)]	–	303.8	–
CC=CCC=CCC=CCC=CCC=CCC=CCC(=O)OC[C@H](COP(=O)(O)OCC[N+](C)(C)C)OC(=O)CC=CCC=CCC=CCC=CCC=CCC=CC [PC(40:12)]	300.6	–	–
CCC(C)[C@H](NC(=O)[C@@H](N)CCC(N)=O)C(=O)N[C@@H](CO)C(=O)N[C@H](C(=O)N[C@@H](CCCNC(=N)N)C(=O)O)C(C)C (some centres undefined) [QISVR]	–	–	collision cross section (N2) ([M+H]+): 241.4 Å²
CCC(C)[C@H](NC(=O)[C@H](CO)NC(=O)[C@@H](NC(=O)[C@@H](N)CO)C(C)CC)C(=O)N[C@H](C(=O)NCC(=O)N[C@@H](CO)C(=O)N[C@@H](Cc1ccc(O)cc1)C(=O)N[C@H](C(=O)NCC(=O)N[C@@H](CC(N)=O)C(=O)N[C@@H](CCCNC(=N)N)C(=O)O)C(C)C)C(C)C (some centres undefined) [SISIVGSYVGNR]	–	–	collision cross section (N2) ([M+H]+): 349.1 Å²
CC(C)[C@H](NC(=O)[C@@H](N)CO)C(=O)N[C@@H](Cc1ccc(O)cc1)C(=O)N[C@@H](CC(=O)O)C(=O)N[C@@H](CO)C(=O)N[C@@H](CCCNC(=N)N)C(=O)O [SVYDSR]	–	–	collision cross section (N2) ([M+H]+): 258.4 Å²
CCCCCCC[N+](CCCCCCC)(CCCCCCC)CCCCCCC [TAA7]	–	–	collision cross section (N2) ([M]+): 236.4 Å²
CCCCCCCCCCCCCCCCCC[N+](CCCCCCCCCCCCCCCCCC)(CCCCCCCCCCCCCCCCCC)CCCCCCCCCCCCCCCCCC [TAA18]	–	–	collision cross section (N2) ([M]+): 379 Å²
CC(C)C[C@H](NC(=O)[C@H](CO)NC(=O)[C@H](C)NC(=O)[C@@H](N)C(C)C)C(=O)N[C@@H](CCCNC(=N)N)C(=O)O [VASLR]	–	–	collision cross section (N2) ([M+H]+): 232.5 Å²
